≈ marks a conversion by molar mass, not a printed value. *1 amine or outer side, *2 acyl side, *3 side chain or, on linkers, in order; H or OH if unused. Where a SMILES comes first, the peptide text is derived from it. Where no end group is shown, it is not given here. [ ]: non-standard residue; d: D form. X1 = COc1ccc(C2=[N+]3C(=C(c4ccc(C[C@H](N[*:1])C(=O)[*:2])cc4)c4ccc(-c5ccc(OC)cc5)n4[B-]3(F)F)C=C2)cc1
Key:
C. glabrata = type: cell-based, Candida glabrata; settings: 48 h
Protocol: (§1) Figure 4 a) Synthetic procedure for the preparation Fmoc‐Phe(pMP‐BODIPY)‐OH (11). Inset: pictures of solutions of probe 17 (30 μM) under excitation with a 365 nm UV‐lamp in PBS (left) and in liposomes (right). b) Minimum inhibitory concentration (MIC) values of peptides 12–16 against different Candida strains (5×10^5 cells mL^−1) in 20 % Vogel's medium after 48 h incubation at 37 °C. MIC was determined by brightfield microscopy from three independent experiments. c) Chemical structure of peptide 17 and fluorogenic response (25 μM) in PBS (black) and in aqueous suspensions containing liposomes (red). λ exc: 530 nm (n=3). d) MIC values of peptide 17 against different Candida strains and bacteria (5×10^5 cells mL^−1) in 10 % liquid LB medium after 48 h incubation at 37 °C. MIC was determined by brightfield microscopy from three independent experiments (n=3). e) Normalised fluorescence of probe 17 (30 μM) when incubated in diluted urine samples under continuous light irradiation. λ exc: 530 nm. Data presented as mean±SD (n=3). TEXT PRINTED IN THE PICTURE: (a) no label printed: QY 0.08% (OFF); QY 14.9% (ON) | (b) 12: MIC (μmol L^-1) C. inconspic.: 60; MIC (μmol L^-1) C. arius: > 60; MIC (μmol L^-1) C. albicans: 15; MIC (μmol L^-1) C. rugosa: 15; MIC (μmol L^-1) C. glabrata: 30; MIC (μmol L^-1) C. krusei: 30 | (b) 13: MIC (μmol L^-1) C. inconspic.: 2; MIC (μmol L^-1) C. arius: 4; MIC (μmol L^-1) C. albicans: 4; MIC (μmol L^-1) C. rugosa: 16; MIC (μmol L^-1) C. glabrata: 8; MIC (μmol L^-1) C. krusei: 4 | (b) 14: MIC (μmol L^-1) C. inconspic.: > 60; MIC (μmol L^-1) C. arius: > 60; MIC (μmol L^-1) C. albicans: > 60; MIC (μmol L^-1) C. rugosa: > 60; MIC (μmol L^-1) C. glabrata: > 60; MIC (μmol L^-1) C. krusei: > 60 | (b) 15: MIC (μmol L^-1) C. inconspic.: 4; MIC (μmol L^-1) C. arius: > 60; MIC (μmol L^-1) C. albicans: 16; MIC (μmol L^-1) C. rugosa: > 60; MIC (μmol L^-1) C. glabrata: 16; MIC (μmol L^-1) C. krusei: 8 | (b) 16: MIC (μmol L^-1) C. inconspic.: 2; MIC (μmol L^-1) C. arius: 32; MIC (μmol L^-1) C. albicans: 4; MIC (μmol L^-1) C. rugosa: 32; MIC (μmol L^-1) C. glabrata: 4; MIC (μmol L^-1) C. krusei: 8 | (c) peptide 17: λexc.: 530 nm; λem.: 625 nm | (d) peptide 17: MIC (μmol L^-1) C. inconspicua: 8; MIC (μmol L^-1) C. arius: 64; MIC (μmol L^-1) C. albicans: 16; MIC (μmol L^-1) C. rugosa: 64; MIC (μmol L^-1) C. glabrata: 32; MIC (μmol L^-1) C. krusei: 8; MIC (μmol L^-1) E. Coli: > 200 DOUBTS OF THE COPYIST ABOUT THIS PICTURE: Panel a, QY 0.08% / 14.9%: the picture prints no substance label beside the OFF/ON photographs, so the label is left empty / Panel d: the table itself prints no substance label; it is assigned to 'peptide 17', printed directly above it in panel c / Panel c, λexc. 530 nm and λem. […]

C. rugosa = type: cell-based, Candida rugosa; settings: 48 h
Protocol: as §1

C. inconspicua = type: cell-based, Candida inconspicua; settings: 48 h
Protocol: as §1

C. albicans = type: cell-based, Candida albicans; settings: 48 h
Protocol: as §1

C. krusei = type: cell-based, Candida krusei; settings: 48 h
Protocol: as §1

[1] = type: in vitro ADME, human; settings: diluted urine (urine:water 1:6)
Description: To the best of our knowledge, compound 11 represents the first example of a Phe‐based BODIPY amino acid for SPPS with strong emission in the red region of the visible spectrum. Prior to the incorporation of Phe‐(pMP)BODIPY amino acid 11 into peptides that could detect Candida fungal cells, we prepared a small collection of Phe‐containing antimicrobial peptides as fungal‐targeting scaffolds that could later accommodate BODIPY‐based aromatic FlAAs (Figure 4b). We selected peptide analogues derived from the natural occurring temporin L (Rana temporaria, peptide 12),[31] jelleine‐I (Apis mellifera, peptide 13)[32] and Aurein1.2 (Litoria aurea or Litoria raniformis, peptide 15).[33] […] We next analysed the biological profile of peptide 17 in fungal cells and its selectivity over bacteria. […] Furthermore, we evaluated the photo‐ and chemical stability of the peptide 17 in human urine upon continuous light irradiation. In these assays, we ran both fluorescence and HPLC analysis to confirm that the peptide 17 was fully stable for the clinical evaluation of urine samples using fluorescence‐based assays (Figure 4e and Figure S13).
[…] Environmental sensitivity was measured by comparing the fl uore sce nc e emission in Me OH vs gl yc e rol (c om pounds 4-7) a nd i n pre se nc e of l i posom e suspe nsi ons i n PB Sor PBS a l one (c om pound 17). […]

| Compound | MIC C. glabrata (C. glabrata) [µM] | MIC C. rugosa (C. rugosa) [µM] | MIC C. inconspic. (C. inconspicua) [µM] | MIC C. albicans (C. albicans) [µM] | MIC C. krusei (C. krusei) [µM] | Photostability in human urine upon continuous light irradiation ([1]; 30 µM, 384-well plates, 37 °C, fluorescence emission 644 nm, λexc 530 nm, mean of three independent experiments n=3) | Chemical stability (integrity) in human urine ([1]; 100 µM, 37 °C, 0, 1 and 10 h, HPLC-MS, absorbance 570 nm) |
| --- | --- | --- | --- | --- | --- | --- | --- |
| WFKIIKK-NH2 [peptide 15] | 16 | > 60 | 4 | 16 | 8 |  |  |
| CC[C@H](C)[C@@H]1NC(=O)[C@H](CO)NC(=O)[C@H]([C@@H](C)CC)NC(=O)[C@H](CCCCN)NC(=O)[C@H](Cc2ccccc2)NC(=O)[C@@H]2CCCN2C(=O)[C@H](CC(C)C)NC(=O)[C@H](Cc2c[nH]cn2)NC1=O [peptide 14] (cyclo(FKISIHLP)) | > 60 | > 60 | > 60 | > 60 | > 60 |  |  |
| CC[C@H](C)[C@@H]1NC(=O)[C@H](CCCCN)NC(=O)[C@H](Cc2ccccc2)NC(=O)[C@H](Cc2c[nH]c3ccccc23)NC(=O)[C@H](CCCCN)NC(=O)[C@H](CCCCN)NC(=O)[C@H]([C@@H](C)CC)NC1=O [compound 16] (cyclo(FKIIKKW)) | 4 (≈ 3.78 µg/mL) | 32 (≈ 30.2 µg/mL) | 2 (≈ 1.89 µg/mL) | 4 (≈ 3.78 µg/mL) | 8 (≈ 7.55 µg/mL) |  |  |
| H-FVQWFSKFLGKIL-NH2 [peptide 12, H-Phe-Val-Gln-Trp-Phe-Ser-Lys-Phe-Leu-Gly-Lys-Ile-Leu-NH2] | 30 | 15 | 60 | 15 | 30 |  |  |
| CC[C@H](C)[C@H](NC(=O)[C@H](CO)NC(=O)[C@@H](NC(=O)[C@H](CCCCN)NC(=O)[C@H](Cc1ccc(C2=C3C=CC(c4ccc(OC)cc4)=[N+]3[B-](F)(F)n3c2ccc3-c2ccc(OC)cc2)cc1)NC(=O)[C@@H]1CCCN1)[C@@H](C)CC)C(=O)N[C@@H](Cc1c[nH]cn1)C(=O)N[C@@H](CC(C)C)C(N)=O [peptide 17, H-Pro-Phe(pMP-BODIPY)-Lys-Ile-Ser-Ile-His-Leu-NH2] (H-P[X1]KISIHL-NH2) |  |  |  |  |  | fully stable | fully stable |
